Experimental data from patent publication US20190298775A1, “LIVER ORGANOID COMPOSITIONS AND METHODS OF MAKING AND USING SAME” (Children's Hospital Medical Center, priority 2016, published 2019).
Like-named read-outs stand apart in the source and are kept apart here. Values belong to the molecule of their own block, whether it stands above or below them.

Experiments:
[1] = test system: human iPSC-derived liver organoids; experiment: Albumin secretion of organoids (ELISA); type: cell-based
Experimental: On Day 7-8, definitive endoderm organoids with plated cells were gently pipetted to delaminate from dishes. Isolated spheroids were centrifuged at 800 rpm for 3 minutes and, after removing supernatant, embedded in 100% matrigel drop on the dishes. The plates were placed at 37° C. in an atmosphere of 5% CO2/95% air for 5-15 min. After the Matrigel was solidified, Advanced DMEM/F12 was added with B27, N2 and Retinoic acid (RA; Sigma, St. Louis, Mo.) 2 μM for 1-5 days. The media was replaced every other day. After RA treatment, organoids embedded in Matrigel drop were cultured in Hepatocyte culture medium (HCM Lonza, Walkersville, Md.) with 10 ng/mL hepatocyte growth factor (HGF; PeproTech, Rocky Hill, N.J.), 0.1 μM Dexamethasone (Dex; Sigma) and 20 ng/mL Oncostatin M (OSM; R&D Systems). Cultures for cell differentiation were maintained at 37° C. in an atmosphere of 5% CO2/95% air and the medium was replaced every 3 days. Around Day 20-30, organoids embedded in Matrigel drop were isolated by scratching and gentle pipetting for any analyses.
For measuring albumin, fibrinogen and complement factors secreted level of organoids, 200 μL of culture supernatant of organoids on Ultra-Low attachment 96 well plates (Corning) were collected. The culture supernatants were collected and stored at −80° C. until use. The supernatant was assayed with Human Albumin ELISA Quantitation Set (Bethyl Laboratories, Inc., TX, USA) and fibrinogen (Thermo Fisher Scientific) according to the manufacturer's instructions. For analyzing complement factors, supernatants were measured with Luminex System (Luminex Corporation, Austin, Tex.) according to the manufacturer's instructions. To calculate albumin production per the number of cells, the linear regression equation of cell numbers by diameter of an organoid was used. For measuring total bile acid secreted level intra-luminal organoids, fluid inside organoids was absorbed using microinjection Nanoject II (Drummond Scientific, Broomall, Pa., USA). Fluid absorbed was dilute in PBS and assayed with Total Bile Acid ELISA Kit (Antibodies-online, Inc., GA, USA). To calculate the volume of total bile acid, the number of cells in organoid was calculated using the linear regression equation in the same manner for albumin production and the molecular weight of cholic acid was used for calculation and comparing with volume in previous report.

[2] = test system: human liver organoids; conditions: for organoid viability / cell viability: human; for organoid viability: 130 μM; for cell viability: 50 μM
[3] = test system: lipotoxic organoid model; experiment: Viability in organoids on vulnerable (lipotoxic, oleic acid) condition; type: cell-based, human
Experimental: Next, 50 μM of Troglitazone was treated with or without 50 μM NAC for 24h. […] Images were captured sequentially using fluorescent microscopy BZ-9000.

[4] = test system: liver organoids; experiment: Lipid accumulation in organoids after oleic acid (BODIPY live staining); type: cell-based, human; conditions: 3 days after oleic acid treatment
Experimental: Images were captured sequentially using fluorescent microscopy BZ-9000. […] The following regents or kits were used: BODIPY® 493/503 for lipids (Thermo Fisher Scientific), and SiR Actin Kit for cytoskeleton (USA Scientific, FL, USA), CellROX® Green Reagent for ROS (Fisher Scientific), TMRM (Thermo Fisher Scientific) for mitochondria. […] ROS production, mitochondria size and number were analyzed by IMARIS 8.

[5] = test system: bile transport activity in liver organoids

Compound: CC1=C(/C=C/C(C)=C/C=C/C(C)=C/C(=O)O)C(C)(C)CCC1 [RA, retinoic acid]
albumin secretion level of organoids at D25 ([1]; 1 day of RA treatment): 1160 ng/mL
albumin secretion level of organoids at D25 ([1]; 2 days of RA treatment): 1054 ng/mL
albumin secretion level of organoids at D25 ([1]; 3 days of RA treatment): 3092 ng/mL
albumin secretion level of organoids at D25 ([1]; 4 days of RA treatment): 4709 ng/mL
albumin secretion level of organoids at D25 ([1]; 5 days of RA treatment): 3865 ng/mL

Compound: CCN(CC)C(=O)/C(C#N)=C/c1cc(O)c(O)c([N+](=O)[O-])c1 [Entacapone]
organoid viability ([2]; 24 h): 85%
organoid viability ([2]; 72 h): 64%

Compound: CC(=O)N[C@@H](CS)C(=O)O [NAC, N-acetylcysteine]
cell viability with NAC (rescue from Troglitazone toxicity) ([3]; lipotoxic condition, 50 μM Troglitazone with 50 μM NAC, 24h): significantly improved

Compound: CCCCCCCC/C=C\CCCCCCCC(=O)O [oleic acid]
lipid accumulation in organoids [4]: intense

efflux of FD (bile transport inhibition) [5]: significantly decreased
Compound: CCc1nn(CCCN2CCN(c3cccc(Cl)c3)CC2)c(=O)n1CCOc1ccccc1 [Nefazodone]
cell viability at 72 hours relative to TOL, DICLO and BOS [2]: significantly lowered

Compound: CN(CCOc1ccc(CC2SC(=O)NC2=O)cc1)c1ccccn1 (stereo not shown) [Rosiglitazone]
toxicity in steatotic organoids [3]: vulnerable

efflux of FD (bile transport inhibition) [5]: significantly decreased
Compound: Cc1c(C)c2c(c(C)c1O)CCC(C)(COc1ccc(CC3SC(=O)NC3=O)cc1)O2 (stereo not shown) [Troglitazone]
cell viability at 72 hours relative to TOL, DICLO and BOS [2]: significantly lowered
cell viability ([2]; 24 h): 85%
cell viability ([2]; 72 h): 67%
cell viability compared to control ([3]; lipotoxic condition (800 μM oleic acid 3 days), 50 μM for 24h, p<0.05): −40%
organoid morphology on lipotoxic condition ([3]; lipotoxic condition, 24h): massive fragmentation of organoids

efflux of FD (bile transport inhibition) [5]: significantly decreased
Compound: COc1ccccc1Oc1c(NS(=O)(=O)c2ccc(C(C)(C)C)cc2)nc(-c2ncccn2)nc1OCCO [Bosentan]
